Data from ChEMBL document CHEMBL1201862, “PubChem BioAssay data set” (2004).
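Dose response: 5 concentrations. Exposure: 48 h. Format: 96-well plates. Endpoint: linear interpolation; highest concentration if not reached. GI50 = concentration required for 50% inhibition of growth.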 Active and inactive are the calls of the source. Cut-off read from the data, not from the text of the source: active = GI50 up to about 1.1 µM and inactive = higher.

Assays:
Experiment in all cases: NCI anticancer screen, dose series, 48 h
[1] = test system: SK-MEL-5
[2] = test system: XF498
[3] = test system: OVCAR-4
[4] = test system: DMS-273
[5] = test system: HL-60
[6] = test system: SK-MEL-2
[7] = test system: RPMI-8226
[8] = test system: A549
[9] = test system: Malme-3M
[10] = test system: HOP-62
[11] = test system: DLD-1
[12] = test system: NCI-H460
[13] = test system: SNB-19
[14] = test system: RXF 393
[15] = test system: A498
[16] = test system: CAKI-1
[17] = test system: M14
[18] = test system: SW-620
[19] = test system: MOLT-4
[20] = test system: SN12C
[21] = test system: SF-539
[22] = test system: EKVX
[23] = test system: DMS-114
[24] = test system: HCC 2998
[25] = test system: SR
[26] = test system: UACC-257
[27] = test system: UO-31
[28] = test system: COLO 205
[29] = test system: HCT-15
[30] = test system: NCI-H23
[31] = test system: TK-10
[32] = test system: U-251
[33] = test system: UACC-62
[34] = test system: CCRF-CEM
[35] = test system: NCI-H226
[36] = test system: LOX IMVI
[37] = test system: HT-29
[38] = test system: HCT-116
[39] = test system: K562
[40] = test system: LXFL 529
[41] = test system: NCI-H522
[42] = test system: 786-0
[43] = test system: SF-295
[44] = test system: KM12
[45] = test system: ACHN
[46] = test system: OVCAR-8
[47] = test system: KM-20L2
[48] = test system: IGROV-1
[49] = test system: SNB-75
[50] = test system: SF-268
[51] = test system: SK-OV-3
[52] = test system: OVCAR-3
[53] = test system: M19-MEL
[54] = test system: SNB-78
[55] = test system: SK-MEL-28

`C=C1CC(CC)(CCN2C(=O)c3ccccc3C2=O)OC1=O` (centres undefined) was tested, and the GI50 [1] was 12.9 µM (inactive), the GI50 [2] was 13.4 µM (inactive) and the GI50 [3] was 14.2 µM (inactive). The GI50 [4] was 11.4 µM (inactive), the GI50 [5] was 9.2 µM (inactive) and the GI50 [6] was 12.9 µM (inactive). For the same compound, the GI50 [7] was 22.7 µM (inactive), the GI50 [8] was 27.7 µM (inactive) and the GI50 [9] was 11.8 µM (inactive). For the same compound, the GI50 [10] was 35.9 µM (inactive), the GI50 [11] was 17.9 µM (inactive) and the GI50 [12] was 69.2 µM (inactive). The GI50 [13] was > 10 µM (inactive), the GI50 [14] was 15.5 µM (inactive) and the GI50 [15] was 19.2 µM (inactive). For the same compound, the GI50 [16] was 2.09 µM (inactive), the GI50 [17] was 10.9 µM (inactive) and the GI50 [18] was 7.55 µM (inactive). The GI50 [19] was 21.9 µM (inactive), the GI50 [20] was 18.6 µM (inactive) and the GI50 [21] was 18.9 µM (inactive). For the same compound, the GI50 [22] was 17 µM (inactive), the GI50 [23] was 19.2 µM (inactive) and the GI50 [24] was 17.7 µM (inactive). For the same compound, the GI50 [25] was 27.4 µM (inactive), the GI50 [26] was 13.8 µM (inactive) and the GI50 [27] was 19.7 µM (inactive). For the same compound, the GI50 [28] was 16.7 µM (inactive), the GI50 [29] was 13.9 µM and the GI50 [30] was 14.1 µM (inactive). The GI50 [31] was 17.7 µM (inactive), the GI50 [32] was > 10 µM (inactive) and the GI50 [33] was 13.3 µM (inactive). The GI50 [34] was 7.71 µM (inactive), the GI50 [35] was 13.8 µM (inactive) and the GI50 [36] was 14.2 µM (inactive). The GI50 [37] was 14.1 µM (inactive), the GI50 [38] was 12.6 µM (inactive) and the GI50 [39] was 20.8 µM (inactive). The GI50 [40] was 13.6 µM (inactive), the GI50 [41] was 3.48 µM (inactive) and the GI50 [42] was 11.9 µM (inactive). The GI50 [43] was 29.2 µM (inactive), the GI50 [44] was 21 µM (inactive) and the GI50 [45] was 14.9 µM (inactive). The GI50 [46] was 16.4 µM (inactive), the GI50 [47] was 15.8 µM (inactive) and the GI50 [48] was 35.8 µM (inactive). The GI50 [49] was 43.8 µM (inactive) and the GI50 [50] was 1.08 µM (active).

In the case of `Cn1c(=O)c(C(=O)NC23CC4CC(CC(C4)C2)C3)c(O)c2ccccc21`, the GI50 [4] is reported as 26.2 µM (inactive), the GI50 [51] is reported as 20.9 µM (inactive) and the GI50 [5] is reported as 25.1 µM (inactive). For the same compound, the GI50 [7] was > 100 µM (inactive), the GI50 [8] was 28.8 µM (inactive) and the GI50 [9] was 21.2 µM (inactive). The GI50 [10] was 21.8 µM (inactive), the GI50 [11] was 50.7 µM (inactive) and the GI50 [12] was 22.3 µM (inactive). For the same compound, the GI50 [13] was 21.2 µM (inactive), the GI50 [14] was 14.8 µM (inactive) and the GI50 [17] was 28.8 µM (inactive). The GI50 [18] was 56.1 µM (inactive), the GI50 [19] was > 100 µM (inactive) and the GI50 [20] was 21.9 µM (inactive). The GI50 [21] was 26.7 µM (inactive), the GI50 [22] was 31.5 µM (inactive) and the GI50 [23] was 45.6 µM (inactive). The GI50 [24] was > 10 µM (inactive), the GI50 [25] was > 100 µM (inactive) and the GI50 [52] was 23.4 µM (inactive). For the same compound, the GI50 [53] was 49.8 µM (inactive), the GI50 [26] was 28.8 µM (inactive) and the GI50 [27] was 50.1 µM (inactive). For the same compound, the GI50 [28] was 46.1 µM (inactive), the GI50 [29] was over 100 µM and the GI50 [54] was 43.3 µM (inactive). The GI50 [30] was 67.9 µM (inactive), the GI50 [31] was 23.8 µM (inactive) and the GI50 [32] was 24.5 µM (inactive). The GI50 [33] was 53.7 µM (inactive), the GI50 [55] was 37.7 µM (inactive) and the GI50 [34] was > 100 µM (inactive). For the same compound, the GI50 [35] was 13.4 µM (inactive), the GI50 [36] was 43.4 µM (inactive) and the GI50 [37] was 15.8 µM (inactive). The GI50 [38] was 23.5 µM (inactive), the GI50 [39] was > 100 µM (inactive) and the GI50 [40] was 59.4 µM (inactive). For the same compound, the GI50 [41] was > 100 µM (inactive), the GI50 [42] was 14.3 µM (inactive) and the GI50 [43] was 18.5 µM (inactive). The GI50 [44] was > 100 µM (inactive), the GI50 [45] was 19.9 µM (inactive) and the GI50 [46] was 23.3 µM (inactive). For the same compound, the GI50 [47] was 28.9 µM (inactive), the GI50 [48] was 31.8 µM (inactive) and the GI50 [49] was 28.4 µM (inactive). For the same compound, the GI50 [50] was 74.5 µM (inactive).
